Legend:
soybean seeds [1] = assay: Seed germination assay; assay type: in vivo; details: for germination in 24 hours: test compound 10^−7 M in DI-water, 24 hr in dark at room temperature, radicle emergence as indicator, five repeats of 20 seeds
Description: Materials were all sterilized before use. An aqueous solution of the test compound (25 mL, 10^−7 M in DI-water) was prepared for a set of five repeat experiments. Five Petri dishes and 100 soybean seeds were used to test one compound. A piece of Whatman filter paper was used to cover the inner side of each Petri dish to allow uniform distribution of testing solution. Twenty soybean seeds were placed on the filter paper area of one Petri dish. 5 mL of the test compound solution was carefully poured in the Petri dish. Control experiments were set up the same way with 20 soybean seeds and 5 mL of DI-water per dish without any compounds. The lid was placed on the Petri dish and was sealed with Para-film. Five dishes with repeat experiments were stacked. One stack of dishes was wrapped twice with aluminum foil to prevent the seeds receiving any light. The stacks were transferred to an incubator maintained at room temperature and the seeds were germinated in dark. After 24 hr, the stacks were pulled out for measurement. The number of germinated seeds was counted and the percent of germination on each dish was calculated. Radicle emergence was used as the germination indicator. The dishes were placed unwrapped at room temperature for one day and the number of germinated seeds was counted to assure seeds were able to germinate and different germination yields were not caused by bad seed quality. Seeds showing above 90% of germination were considered normal. The standard deviation of five repeats was calculated. Test results with 10% or lower standard deviation was considered good. Compounds acting as plant performance enhancers should promote a significant increase in average percentage of germination compared to the control above the standard deviation.

soybean seeds [2] = assay: Plant growth assay (radical length of germinating seed); assay type: in vivo; details: soybean seeds germinated 24 hr with 10^−7 M compound, then additional 40 hr open to light at room temperature
Description: Plant growth assay Seeds germinated for 24 hr using the seed germination assay above were left open to light for another 40 hr. The radical length was measured and the percentage of germinating seed with radical length of greater than 1.5 cm was determined.

| SMILES | germination in 24 hours (soybean seeds [1]) [%] | germinating seed with radical length longer than 1.5 cm (soybean seeds [2]) [%] | efficacy for enhanced seed germination and radical growth (summary in words) (soybean seeds [1]; conclusion from the germination and plant growth assays) |
| --- | --- | --- | --- |
| CO[C@@H]1O[C@H](CO)[C@@H](O)[C@H](O)[C@H]1NC(=O)/C=C/c1cccc(C(F)(F)F)c1 [Example 4, (E)-N-((2R,3R,4R,5S,6R)-4,5-dihydroxy-6-(hydroxymethyl)-2-methoxytetrahydro-2H-pyran-3-yl)-3-(3-(trifluoromethyl)phenyl)acrylamide] | 75 | 69 |  |
| CO[C@@H]1O[C@H](CO)[C@@H](O)[C@H](O)[C@H]1NC(=O)/C=C/c1cccc(C)c1 [Example 3, (E)-N-((2R,3R,4R,5S,6R)-4,5-dihydroxy-6-(hydroxymethyl)-2-methoxytetrahydro-2H-pyran-3-yl)-3-(m-tolyl)acrylamide] | 61 | 56 |  |
| CO[C@@H]1O[C@H](CO)[C@@H](O)[C@H](O)[C@H]1NC(=O)/C=C/c1ccc(C)cc1 [Example 2, (E)-N-((2R,3R,4R,5S,6R)-4,5-dihydroxy-6-(hydroxymethyl)-2-methoxytetrahydro-2H-pyran-3-yl)-3-(p-tolyl)acrylamide] | 70 | 66 |  |
| CO[C@@H]1O[C@H](CO)[C@@H](O)[C@H](O)[C@H]1NC(=O)/C=C/C=C/c1ccccc1 [Example 1, (2E,4E)-N-((2R,3R,4R,5S,6R)-4,5-dihydroxy-6-(hydroxymethyl)-2-methoxytetrahydro-2H-pyran-3-yl)-5-phenylpenta-2,4-dienamide] | 75 | 69 |  |
| CO[C@@H]1O[C@H](CO)[C@@H](O)[C@H](O)[C@H]1NC(=O)C#Cc1ccccc1 [Example 5, N-((2R,3R,4R,5S,6R)-4,5-dihydroxy-6-(hydroxymethyl)-2-methoxytetrahydro-2H-pyran-3-yl)-3-phenylpropiolamide] | 86 | 95 |  |
| CO[C@@H]1O[C@H](CO)[C@@H](O)[C@H](O)[C@H]1N [(2R,3S,4R,5R,6R)-5-amino-2-(hydroxymethyl)-6-methoxytetrahydro-2H-pyran-3,4-diol, reference compound] | 53 | 45 | insignificant efficacy |

Source: patent US20160007600A1, “SYNTHETIC LIPOCHITOOLIGOSACCHARIDE ANALOGS FOR ENHANCING PLANT PERFORMANCE” (E.I. DU PONT DE NEMOURS AND COMPANY, priority 2013, published 2016)
